Test results reported in ChEMBL document CHEMBL6083293, “Novel Benzimidazole Derivatives as Potent Inhibitors of Microsomal Prostaglandin E2 Synthase 1 for the Potential Treatment of Inflammation, Pain, and Fever” (J Med Chem, 2024).
Calls of active or inactive are those of the source. No cut-off for these calls is given here.

Experiments:
[1] = Metabolic stability in guinea pig liver microsome assessed as half life; assay type: ADME, Cavia porcellus; settings: liver microsomes
[2] = Metabolic stability in guinea pig liver microsome assessed as intrinsic clearance; assay type: ADME, Cavia porcellus; settings: liver microsomes, read-out: CLH
[3] = Metabolic stability in human liver microsome assessed as half life; assay type: ADME; settings: liver microsomes
[4] = Metabolic stability in human liver microsome assessed as intrinsic clearance; assay type: ADME; settings: liver microsomes, read-out: CLH
[5] = target: T1, Prostaglandin G/H synthase 2 (Homo sapiens) (UniProt P35354); assay: Inhibition of human recombinant COX-2 at 1 uM using arachidonic acid as substrate preincubated for 6 mins followed by substrate addition and measured after 10 mins by RP-HPLC analysis; settings: time 16.0 min
T1 sequence (whole entry): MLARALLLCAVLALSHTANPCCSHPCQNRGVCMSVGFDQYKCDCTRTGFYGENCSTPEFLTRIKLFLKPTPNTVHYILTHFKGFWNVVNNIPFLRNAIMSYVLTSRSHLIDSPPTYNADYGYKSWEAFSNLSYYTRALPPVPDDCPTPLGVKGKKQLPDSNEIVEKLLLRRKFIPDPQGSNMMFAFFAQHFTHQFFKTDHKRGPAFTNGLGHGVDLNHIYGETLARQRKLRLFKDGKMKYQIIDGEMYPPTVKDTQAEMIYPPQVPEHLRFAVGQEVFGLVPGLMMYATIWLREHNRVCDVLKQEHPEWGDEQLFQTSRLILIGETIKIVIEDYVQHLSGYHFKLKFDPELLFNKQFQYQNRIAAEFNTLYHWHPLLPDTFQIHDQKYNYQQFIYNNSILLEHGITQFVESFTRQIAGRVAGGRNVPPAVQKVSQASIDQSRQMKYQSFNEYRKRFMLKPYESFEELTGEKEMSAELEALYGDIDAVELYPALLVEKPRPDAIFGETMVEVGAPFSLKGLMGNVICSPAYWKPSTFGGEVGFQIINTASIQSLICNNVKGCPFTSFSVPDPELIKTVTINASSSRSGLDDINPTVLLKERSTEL

[6] = Cytotoxicity against human MDM cells assessed as metabolic activity at 3 uM measured after 48 hrs by MTT assay; assay type: toxicity, cell-based
[7] = Toxicity in guinea pig assessed as increase in sinusoidal capillary diameter at 30 mg/kg, po; assay type: organism-based, Cavia porcellus; settings: in vivo
[8] = Initial plasma concentration in guinea pig at 2 mg/kg, iv; assay type: ADME, organism-based, Cavia porcellus
[9] = Hepatotoxicity in guinea pig assessed as effect on ALT level in plasma at 30 mg/kg, po; assay type: toxicity, organism-based, Cavia porcellus; settings: in vivo
[10] = Volume of distribution at steady state in guinea pig at 2 mg/kg, iv; assay type: ADME, organism-based, Cavia porcellus; settings: in vivo, read-out: Vdss
[11] = Half life in guinea pig at 20 mg/kg, po; assay type: ADME, organism-based, Cavia porcellus; settings: in vivo
[12] = Oral bioavailability in guinea pig at 20 mg/kg; assay type: ADME, organism-based, Cavia porcellus; settings: in vivo
[13] = Hepatotoxicity in guinea pig assessed as effect on AST level in plasma at 30 mg/kg, po; assay type: toxicity, organism-based, Cavia porcellus; settings: in vivo
[14] = target: T2, Arachidonate 5-lipoxygenase-activating protein (Homo sapiens) (UniProt P20292); assay: Inhibition of FLAP in calcium ionophore A23187-stimulated human Neutrophil cells at 1 uM preincubated for 15 mins followed by calcium ionophore A23187 stimulation for 10 mins by RP-HPLC analysis; assay type: cell-based; settings: time 25.0 min
T2 sequence (whole entry): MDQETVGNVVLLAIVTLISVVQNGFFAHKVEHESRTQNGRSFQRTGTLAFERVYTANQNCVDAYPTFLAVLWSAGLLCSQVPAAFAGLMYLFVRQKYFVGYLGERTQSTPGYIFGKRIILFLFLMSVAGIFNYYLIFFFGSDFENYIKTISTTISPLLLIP

[15] = Clearance in guinea pig at 2 mg/kg, iv; assay type: ADME, organism-based, Cavia porcellus; settings: in vivo
[16] = Cytotoxicity against human MDM cells assessed as LDH release at 3 uM measured after 3 hrs; assay type: toxicity, cell-based
[17] = Hepatotoxicity in guinea pig assessed as increase in ALP level in plasma at 30 mg/kg, po; assay type: toxicity, organism-based, Cavia porcellus; settings: in vivo
[18] = test system: Cavia porcellus; assay: Anti-hyperalgesic activity against carrageenan-induced guinea pig mechanical hyperalgesia model at 30 mg/kg, po; assay type: functional, organism-based
[19] = test system: Cavia porcellus; assay: Anti-pyretic activity against LPS-induced guinea pig pyresis model assessed as increase in rectal temperature at 30 mg/kg, po measured at 180 to 240 mins; assay type: functional, organism-based; settings: time 180-240 min
[20] = Cmax in guinea pig at 20 mg/kg, po; assay type: ADME, organism-based, Cavia porcellus; settings: in vivo
[21] = target: T3, Polyunsaturated fatty acid 5-lipoxygenase (Homo sapiens) (UniProt P09917); assay: Inhibition of human recombinant 5-LOX expressed in Escherichia coli BL21(DE3) at 1 uM using arachidonic acid as substrate preincubated with compound for 15 mins followed by substrate and CaCl2 addition measured after 10 mins by RP-HPLC analysis; settings: time 25.0 min
T3 sequence (whole entry): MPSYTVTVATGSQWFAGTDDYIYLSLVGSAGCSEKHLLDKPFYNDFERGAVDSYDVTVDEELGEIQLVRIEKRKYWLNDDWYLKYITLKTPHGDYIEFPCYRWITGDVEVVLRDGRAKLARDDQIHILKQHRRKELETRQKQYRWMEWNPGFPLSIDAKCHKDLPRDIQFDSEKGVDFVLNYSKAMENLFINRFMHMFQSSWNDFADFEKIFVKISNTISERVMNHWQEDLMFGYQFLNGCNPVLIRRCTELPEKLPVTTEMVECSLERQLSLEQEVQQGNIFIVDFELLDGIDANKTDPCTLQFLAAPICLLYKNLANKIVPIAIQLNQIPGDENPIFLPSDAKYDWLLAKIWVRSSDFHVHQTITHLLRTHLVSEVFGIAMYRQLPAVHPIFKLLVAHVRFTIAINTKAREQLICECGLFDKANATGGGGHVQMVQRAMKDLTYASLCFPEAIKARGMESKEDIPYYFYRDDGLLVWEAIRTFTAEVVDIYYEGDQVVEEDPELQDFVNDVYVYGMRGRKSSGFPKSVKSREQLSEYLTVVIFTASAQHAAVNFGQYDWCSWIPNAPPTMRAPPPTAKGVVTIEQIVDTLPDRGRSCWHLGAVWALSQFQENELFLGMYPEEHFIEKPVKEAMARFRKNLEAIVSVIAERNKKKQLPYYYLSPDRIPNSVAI

[22] = AUC (0 to infinity) in guinea pig at 20 mg/kg, po; assay type: ADME, organism-based, Cavia porcellus; settings: in vivo
[23] = target: T4, Prostaglandin G/H synthase 1 (Ovis aries) (UniProt P05979); assay: Inhibition of ovine COX-1 at 1 uM using arachidonic acid as substrate preincubated for 6 mins followed by substrate addition and measured after 10 mins by RP-HPLC analysis; settings: time 16.0 min
T4 sequence (whole entry): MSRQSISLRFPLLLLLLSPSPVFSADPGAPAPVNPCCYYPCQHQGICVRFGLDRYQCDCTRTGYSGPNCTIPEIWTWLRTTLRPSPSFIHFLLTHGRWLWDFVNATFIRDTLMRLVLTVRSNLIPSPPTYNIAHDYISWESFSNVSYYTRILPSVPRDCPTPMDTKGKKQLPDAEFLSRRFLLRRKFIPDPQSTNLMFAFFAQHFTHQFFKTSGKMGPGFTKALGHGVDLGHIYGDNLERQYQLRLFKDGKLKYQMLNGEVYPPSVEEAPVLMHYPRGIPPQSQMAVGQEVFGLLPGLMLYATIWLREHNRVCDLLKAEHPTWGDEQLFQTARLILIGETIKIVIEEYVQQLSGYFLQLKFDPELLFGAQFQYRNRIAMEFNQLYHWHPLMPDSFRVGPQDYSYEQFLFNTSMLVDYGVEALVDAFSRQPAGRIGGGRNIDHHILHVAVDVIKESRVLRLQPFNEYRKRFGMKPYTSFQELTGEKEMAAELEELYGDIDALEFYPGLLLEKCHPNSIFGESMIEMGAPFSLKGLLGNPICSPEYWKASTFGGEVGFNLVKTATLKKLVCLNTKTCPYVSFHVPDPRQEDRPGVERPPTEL

[24] = test system: Cavia porcellus; assay: Anti-inflammatory activity against carrageenan-induced paw edema in guinea pig assessed as inhibition of edema formation at 30 mg/kg, po measured at 120 mins; assay type: functional, organism-based
[25] = test system: Cavia porcellus; assay: Anti-inflammatory activity against carrageenan-induced paw edema in guinea pig assessed as inhibition of edema formation at 30 mg/kg, po measured at 240 mins; assay type: functional; settings: 4 h
[26] = Half life in guinea pig at 2 mg/kg, iv; assay type: ADME, organism-based, Cavia porcellus; settings: in vivo
[27] = Toxicity in guinea pig assessed as increase in number of vacuolated hepatocytes at 30 mg/kg, po; assay type: organism-based, Cavia porcellus; settings: in vivo
[28] = Toxicity in guinea pig assessed as increase in sinusoidal capillary diameter at 10 mg/kg, po; assay type: organism-based, Cavia porcellus; settings: in vivo
[29] = Toxicity in guinea pig assessed as increase in number of vacuolated hepatocytes at 10 mg/kg, po; assay type: organism-based, Cavia porcellus; settings: in vivo
[30] = test system: Cavia porcellus; assay: Anti-inflammatory activity against carrageenan-induced paw edema in guinea pig assessed as reduction in paw swelling at 10 mg/kg, po measured at 240 mins; assay type: functional, organism-based
[31] = target: T5, Prostaglandin E synthase (Homo sapiens) (UniProt O14684); assay: Inhibition of mPGES-1 in human M1-like MDM cells assessed as reduction in PGE2 formation at 10 uM; assay type: cell-based
T5 sequence (whole entry): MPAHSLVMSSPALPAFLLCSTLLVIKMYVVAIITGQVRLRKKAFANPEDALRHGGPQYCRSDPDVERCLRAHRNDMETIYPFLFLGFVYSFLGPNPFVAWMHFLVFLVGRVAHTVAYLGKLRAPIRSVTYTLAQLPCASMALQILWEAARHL

[32] = target: T5, Prostaglandin E synthase (Homo sapiens); assay: Inhibition of mPGES-1 in human M1-like MDM cells assessed as reduction in TXB2 formation at 10 uM; assay type: cell-based
[33] = Hepatotoxicity in guinea pig assessed as increase in ALP level in plasma at 10 mg/kg, po; assay type: toxicity, organism-based, Cavia porcellus; settings: in vivo
[34] = test system: Cavia porcellus; assay: Anti-hyperalgesic activity against carrageenan-induced guinea pig mechanical hyperalgesia model at 10 mg/kg, po; assay type: functional, organism-based

| Compound | half-life [1] [min] | microsomal CLint [2] [µL/min/mg] | half-life [3] [min] | microsomal CLint [4] [µL/min/mg] | C0 [8] [ng/mL] | Vd [10] [L/kg] | half-life [11] [min] | bioavailability [12] [%] | clearance [15] [mL/min/kg] | Cmax [20] [ng/mL] | AUC(0-inf) [22] [ng·h/mL] | half-life [26] [min] | also measured |
| --- | --- | --- | --- | --- | --- | --- | --- | --- | --- | --- | --- | --- | --- |
| CC(C)(C)C(=O)NCc1ccc(Cl)c(C(=O)Nc2ccc(-c3nc4cc(C(F)(F)F)ccc4[nH]3)cc2)c1 | 4.6 | 302 | 5.6 | 247 |  |  |  |  |  |  |  |  |  |
| O=C(Nc1ccc(-c2nc3cc(C(F)(F)F)ccc3[nH]2)cc1)c1cc(CNC(=O)C2(C(F)(F)F)CC2)ccc1Cl | 185 | < 7.5 | 30.7 | 45.2 | 878 | 4.1 | 288 | 61 | 14.9 | 1370 | 13800 | 234 | inhibition [5]: Active; Activity [6]: Non-toxic; Activity [7]: Mild_effect; Activity [9]: Non-toxic; Activity [13]: Non-toxic; inhibition [14]: Active; Activity [16]: Non-toxic; Activity [17]: Non-toxic; Activity [18]: Active; Activity [19]: Active; inhibition [21]: Active; inhibition [23]: Active; Activity [24]: Active; inhibition in vivo at 30 mg/kg [25]: 60%; Activity [27]: Mild_effect |
| CC(C)(C(=O)NCc1ccc(Cl)c(C(=O)Nc2ccc(Cc3nc4cc(C(F)(F)F)ccc4[nH]3)cc2)c1)C(F)(F)F | 49.3 | 28.2 | 51.2 | 27.4 |  |  |  |  |  |  |  |  |  |
| O=C(Nc1ccc(-c2nc3cc(C(F)(F)F)ccc3[nH]2)cc1)c1cc(CNC(=O)C2(C(F)(F)F)CCC2)ccc1Cl | 8.5 | 163 | 4.4 | 315 | 733 | 10 | 342 | 16 | 87.7 | 49 | 620 | 336 |  |
| CC(C)(C(=O)NCc1ccc(Cl)c(C(=O)Nc2ccc(-c3nc4cc(C(F)(F)F)ccc4[nH]3)cc2)c1)C(F)(F)F | 103 | 13.9 | 6.8 | 203 |  |  |  |  |  |  |  |  |  |
| COc1ccc2c(c1)c(CC(=O)O)c(C)n2C(=O)c1ccc(Cl)cc1 [INDOMETHACIN] |  |  |  |  |  |  |  |  |  |  |  |  | Activity [28]: Non-toxic; Activity [29]: Non-toxic; Activity [30]: Active; inhibition [31]: inactive; inhibition [32]: inactive; Activity [33]: Toxic; Activity [34]: Active |
